Experiments:
[1] = tested on: H1N1N09; experiment: Influenza virucidal assay; assay type: cell-based, Influenza A/Netherlands/602/2009 (H1N1)
[2] = Partition coefficient octanol/water (UV-vis); assay type: physicochemical
Description: UV–vis spectroscopy was employed first to determine the correct dilution of all compounds. The seven compounds in this study were B3C11SO4, B3C11SO3, B3C6SO3, B3C6SO4, C4C11SO4, C4C11SO3, and C4C3SO3. The protocol is the same for all the compounds: in the beginning, all compounds were dissolved in water at a concentration of 1 mg/mL. The solution was put into a quartz cuvette and then into the UV–vis spectrometer, where the absorbance from wavelengths 600 to 190 nm was investigated. All of the samples presented a peak in absorbance around 200 nm. The samples were diluted further until the absorbance peak reached values near 0.90.
A biphasic solution composed of 1.5 mL of a water solution of antiviral +1.5 mL of octanol was thoroughly mixed for 60 min. After the mixing, the two phases were separated by centrifugation for 1 min using a benchtop centrifuge at 5000 rpm. The water phase saturated in octanol and the octanol phase saturated with water were extracted and characterized by UV–vis spectrometry.
The partition coefficient (log P) was then calculated using formula : logP=log(Absorbanceofoctanolphase/Absorbanceofwaterphase) 1

[3] = tested on: HSV-1
[4] = tested on: H3N2
[5] = tested on: HSV-2; set-up: method as in Zhu et al., 2024 (citation number not given); settings: earlier paper of the authors; ref Zhu et al., 2024 (citation number not given); cited from earlier work
[6] = tested on: FluB
[7] = tested on: Flu B; experiment: Influenza inhibition assay (ICC on MDCK cells); assay type: cell-based; settings: dose–response
[8] = tested on: HSV-1; experiment: HSV-1 inhibition assay (plaque reduction on Vero cells); assay type: cell-based, herpes simplex virus type 1; settings: Human alphaherpesvirus 1, dose–response
Description: The inhibitory effect of compounds on HSV-1 was evaluated by plaque reduction assay. Vero cells were plated 24 h before the experiment in 24-well plates at a density of 10^5 cells/well. Serial dilutions of compounds in DMEM medium (2% FBS, 1% P/S) were prepared, followed by the addition of aliquots of HSV-1 such that the final titer of the virus is […] (with MOI = 0.0005). Compounds/virus mixtures were incubated at 37 °C for 1 h and added to the cells (250 μL/well). Followed by incubation at 37 °C for 1 h, the viral inoculum was removed. The cells were overlaid with DMEM medium containing 1.2% methylcellulose, 2% FBS, and 1% P/S. After 3 days of incubation at 37 °C, 5% CO2, the cells were fixed and stained with 0.1% crystal violet in 20% ethanol, and plaques were counted. Each group of experiments in the inhibition assay was performed in triplicate. The concentration producing a 50% reduction in plaque formation was determined using the Prism 10 software (GraphPad Software, USA) by comparing compound-treated and untreated cells. Infectivity was calculated as the number of plaques in compound-treated cells/number of plaques in untreated cells × 100%.

[9] = tested on: H1N1 clinical
[10] = tested on: HSV-2; set-up: method as in Zhu et al., 2024 (citation number not given); settings: earlier paper of the authors on benzene-core MEIs; ref Zhu et al., 2024 (citation number not given); read-out: IC50 against HSV-2; cited from earlier work

SMILES	Virucidal activity, H1N1N09 [1]	logP [2]	Virucidal activity, V-1 [3]	Virucidal activity, H3N2 [4]	inhibition mechanism with HSV-2 [5]	Virucidal activity, FluB [6]	IC50 [7] [µM]	IC50 [8] [µM]	Virucidal activity, H1N1 clinical [9]	IC50 [10] [µM]
O=S(=O)(O)CCCCCCCCCCCSCc1cc(CSCCCCCCCCCCCS(=O)(=O)O)cc(CSCCCCCCCCCCCS(=O)(=O)O)c1 [B3C11SO3]	S	-2.43	S	S	virustatic	S	324 ± 103	139 ± 4.6	S	
O=S(=O)(O)OCCCCCCCCCCCSCc1cc(CSCCCCCCCCCCCOS(=O)(=O)O)cc(CSCCCCCCCCCCCOS(=O)(=O)O)c1 [B3C11SO4]		-2.2			virucidal		0.4 ± 0.04	43 ± 1.14		26.2
O=S(=O)(O)CCCCCCCCCCCSCc1cc2c(cc1CSCCCCCCCCCCCS(=O)(=O)O)OCCOCCOc1cc(CSCCCCCCCCCCCS(=O)(=O)O)c(CSCCCCCCCCCCCS(=O)(=O)O)cc1OCCOCCO2 [C4C11SO3]		-2.25					7.7 ± 3.75	118 ± 10.4		
O=S(=O)(O)OCCCCCCCCCCCSCc1cc2c(cc1CSCCCCCCCCCCCOS(=O)(=O)O)OCCOCCOc1cc(CSCCCCCCCCCCCOS(=O)(=O)O)c(CSCCCCCCCCCCCOS(=O)(=O)O)cc1OCCOCCO2 [C4C11SO4]		-1.76					47.9 ± 9.38	22.5 ± 4.2		

— paper PMC12598866, “A Comparative Study of Virucidal and Virustatic Multivalent Entry Inhibitors” (The Journal of Physical Chemistry. B, 2025)
